Test results from ChEMBL document CHEMBL5723582, “Data for DCP probe T-10430” (2024).

Legend:
[1] = target: Type-1 angiotensin II receptor (Homo sapiens, UniProt P30556); test: IP-One assay (AGTR1), agonist mode at up to 50 µM; assay type: functional; design: compound concentration < 50 uM
[2] = target: Vasopressin V1b receptor (Homo sapiens) (UniProt P47901); test: RLU of AVPR1B at 1.0 µM in the […] PRESTO-Tango GPCRome screen; settings: Compound concentration 1.0 uM
[3] = target: C3a anaphylatoxin chemotactic receptor (Homo sapiens) (UniProt Q16581); test: RLU of C3AR1 at 1.0 µM in the […] PRESTO-Tango GPCRome screen; settings: Compound concentration 1.0 uM
[4] = target: Calcitonin gene-related peptide type 1 receptor (Homo sapiens) (UniProt Q16602); test: RLU of CALCRL at 1.0 µM in the […] PRESTO-Tango GPCRome screen; settings: Compound concentration 1.0 uM
Chain of Calcitonin gene-related peptide type 1 receptor (Homo sapiens) (Q16602 whole entry): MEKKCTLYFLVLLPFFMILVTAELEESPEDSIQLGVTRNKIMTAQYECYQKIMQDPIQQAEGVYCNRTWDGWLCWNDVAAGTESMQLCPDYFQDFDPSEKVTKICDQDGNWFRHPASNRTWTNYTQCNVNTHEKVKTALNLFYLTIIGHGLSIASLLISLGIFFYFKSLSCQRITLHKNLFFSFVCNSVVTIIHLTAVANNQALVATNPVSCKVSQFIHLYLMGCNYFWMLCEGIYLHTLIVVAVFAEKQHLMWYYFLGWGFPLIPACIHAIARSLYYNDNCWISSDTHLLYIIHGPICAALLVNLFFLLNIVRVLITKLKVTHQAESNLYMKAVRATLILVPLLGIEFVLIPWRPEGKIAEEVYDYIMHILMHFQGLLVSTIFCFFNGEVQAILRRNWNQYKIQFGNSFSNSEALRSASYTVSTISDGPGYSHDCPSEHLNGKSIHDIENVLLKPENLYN

[5] = target: C-C chemokine receptor type 10 (Homo sapiens) (UniProt P46092); test: RLU of CCR10 at 1.0 µM in the […] PRESTO-Tango GPCRome screen; settings: Compound concentration 1.0 uM
Chain of C-C chemokine receptor type 10 (Homo sapiens) (P46092 whole entry): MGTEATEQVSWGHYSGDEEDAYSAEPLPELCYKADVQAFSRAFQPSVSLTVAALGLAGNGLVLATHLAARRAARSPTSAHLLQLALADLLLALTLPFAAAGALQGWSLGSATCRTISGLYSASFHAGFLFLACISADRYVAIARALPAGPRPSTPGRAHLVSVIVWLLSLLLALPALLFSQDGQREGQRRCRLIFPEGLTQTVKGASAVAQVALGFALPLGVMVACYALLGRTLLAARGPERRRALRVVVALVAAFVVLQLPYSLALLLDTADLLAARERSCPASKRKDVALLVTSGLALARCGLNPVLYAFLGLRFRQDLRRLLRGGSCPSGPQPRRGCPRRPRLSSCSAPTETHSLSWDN

[6] = target: Adhesion G protein-coupled receptor E5 (Homo sapiens) (UniProt P48960); test: RLU of CD97 at 1.0 µM in the […] PRESTO-Tango GPCRome screen; settings: Compound concentration 1.0 uM
[7] = target: Muscarinic acetylcholine receptor M2 (Homo sapiens) (UniProt P08172); test: RLU of CHRM2 at 1.0 µM in the […] PRESTO-Tango GPCRome screen; settings: Compound concentration 1.0 uM
[8] = target: Muscarinic acetylcholine receptor M5 (Homo sapiens) (UniProt P08912); test: RLU of CHRM5 at 1.0 µM in the […] PRESTO-Tango GPCRome screen; settings: Compound concentration 1.0 uM
Chain of Muscarinic acetylcholine receptor M5 (Homo sapiens) (P08912 whole entry): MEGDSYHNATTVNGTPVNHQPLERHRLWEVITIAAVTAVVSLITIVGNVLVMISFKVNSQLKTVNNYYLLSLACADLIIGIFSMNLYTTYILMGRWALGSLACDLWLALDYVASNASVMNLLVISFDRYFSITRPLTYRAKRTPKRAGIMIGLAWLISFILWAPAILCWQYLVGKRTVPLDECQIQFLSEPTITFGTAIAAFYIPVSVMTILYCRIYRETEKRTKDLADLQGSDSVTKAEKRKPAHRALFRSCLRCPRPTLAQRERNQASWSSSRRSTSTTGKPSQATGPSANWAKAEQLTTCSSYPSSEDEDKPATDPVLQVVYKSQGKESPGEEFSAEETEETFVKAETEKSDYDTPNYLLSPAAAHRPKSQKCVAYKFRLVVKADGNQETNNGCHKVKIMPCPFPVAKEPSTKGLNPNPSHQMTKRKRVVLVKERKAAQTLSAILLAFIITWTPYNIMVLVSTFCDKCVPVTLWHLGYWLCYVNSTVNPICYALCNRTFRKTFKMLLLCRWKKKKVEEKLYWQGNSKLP

[9] = target: Atypical chemokine receptor 3 (Homo sapiens) (UniProt P25106); test: RLU of CXCR7 at 1.0 µM in the […] PRESTO-Tango GPCRome screen; settings: Compound concentration 1.0 uM
[10] = target: D(2) dopamine receptor (Homo sapiens) (UniProt P14416); test: RLU of DRD2 at 1.0 µM in the […] PRESTO-Tango GPCRome screen; settings: Compound concentration 1.0 uM
[11] = target: Endothelin receptor type B (Homo sapiens) (UniProt P24530); test: RLU of EDNRB at 1.0 µM in the […] PRESTO-Tango GPCRome screen; settings: Compound concentration 1.0 uM
[12] = target: Free fatty acid receptor 2 (Homo sapiens) (UniProt O15552); test: RLU of FFA2 (GPR43) at 1.0 µM in the […] PRESTO-Tango GPCRome screen; settings: Compound concentration 1.0 uM
[13] = target: Galanin receptor type 3 (Homo sapiens) (UniProt O60755); test: RLU of GAL3 at 1.0 µM in the […] PRESTO-Tango GPCRome screen; settings: Compound concentration 1.0 uM
Chain of Galanin receptor type 3 (Homo sapiens) (O60755 whole entry): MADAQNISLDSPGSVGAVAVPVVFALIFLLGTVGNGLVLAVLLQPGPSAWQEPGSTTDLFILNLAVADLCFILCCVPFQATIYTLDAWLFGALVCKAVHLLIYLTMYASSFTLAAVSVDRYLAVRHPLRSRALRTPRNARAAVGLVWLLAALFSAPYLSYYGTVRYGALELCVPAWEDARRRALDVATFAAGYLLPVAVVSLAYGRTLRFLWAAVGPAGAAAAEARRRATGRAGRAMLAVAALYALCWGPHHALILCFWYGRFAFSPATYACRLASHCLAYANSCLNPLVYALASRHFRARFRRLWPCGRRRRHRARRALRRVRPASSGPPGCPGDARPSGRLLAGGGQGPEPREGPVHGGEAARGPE

[14] = target: Adhesion G protein-coupled receptor A2 (Homo sapiens) (UniProt Q96PE1); test: RLU of GPR124 at 1.0 µM in the […] PRESTO-Tango GPCRome screen; settings: Compound concentration 1.0 uM
[15] = target: G-protein coupled receptor 135 (Homo sapiens) (UniProt Q8IZ08); test: RLU of GPR135 at 1.0 µM in the […] PRESTO-Tango GPCRome screen; settings: Compound concentration 1.0 uM
Chain of G-protein coupled receptor 135 (Homo sapiens) (Q8IZ08 whole entry): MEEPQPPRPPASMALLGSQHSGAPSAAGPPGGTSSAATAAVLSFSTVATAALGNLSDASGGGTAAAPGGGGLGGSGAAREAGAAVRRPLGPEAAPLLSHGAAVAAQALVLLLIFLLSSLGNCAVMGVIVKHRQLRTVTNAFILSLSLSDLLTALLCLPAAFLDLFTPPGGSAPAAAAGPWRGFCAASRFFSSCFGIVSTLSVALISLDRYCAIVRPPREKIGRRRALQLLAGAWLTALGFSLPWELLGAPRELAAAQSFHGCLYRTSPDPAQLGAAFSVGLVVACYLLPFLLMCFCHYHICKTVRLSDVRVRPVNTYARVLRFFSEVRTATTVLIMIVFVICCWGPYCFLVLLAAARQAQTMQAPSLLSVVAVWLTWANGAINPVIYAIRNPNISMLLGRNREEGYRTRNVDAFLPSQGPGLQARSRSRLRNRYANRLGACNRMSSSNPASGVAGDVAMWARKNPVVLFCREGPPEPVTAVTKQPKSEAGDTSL

[16] = target: Probable G-protein coupled receptor 19 (Homo sapiens) (UniProt Q15760); test: RLU of GPR19 at 1.0 µM in the […] PRESTO-Tango GPCRome screen; settings: Compound concentration 1.0 uM
[17] = target: Probable G-protein coupled receptor 21 (Homo sapiens) (UniProt Q99679); test: RLU of GPR21 at 1.0 µM in the […] PRESTO-Tango GPCRome screen; settings: Compound concentration 1.0 uM
Chain of Probable G-protein coupled receptor 21 (Homo sapiens) (Q99679 whole entry): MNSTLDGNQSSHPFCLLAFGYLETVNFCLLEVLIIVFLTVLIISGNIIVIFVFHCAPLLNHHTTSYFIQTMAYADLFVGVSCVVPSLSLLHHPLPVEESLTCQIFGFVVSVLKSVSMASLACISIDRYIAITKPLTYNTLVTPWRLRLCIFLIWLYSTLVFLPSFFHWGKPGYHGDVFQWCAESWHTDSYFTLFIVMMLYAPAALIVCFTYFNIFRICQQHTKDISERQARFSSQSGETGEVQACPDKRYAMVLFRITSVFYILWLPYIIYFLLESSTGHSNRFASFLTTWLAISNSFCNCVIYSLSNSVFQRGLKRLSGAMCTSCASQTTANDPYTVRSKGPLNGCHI

[18] = target: G-prodeshotein coupled receptor 4 (Homo sapiens) (UniProt P46093); test: RLU of GPR4 at 1.0 µM in the […] PRESTO-Tango GPCRome screen; settings: Compound concentration 1.0 uM
[19] = target: G-protein coupled receptor 84 (Homo sapiens) (UniProt Q9NQS5); test: RLU of GPR84 at 1.0 µM in the […] PRESTO-Tango GPCRome screen; settings: Compound concentration 1.0 uM
Chain of G-protein coupled receptor 84 (Homo sapiens) (Q9NQS5 whole entry): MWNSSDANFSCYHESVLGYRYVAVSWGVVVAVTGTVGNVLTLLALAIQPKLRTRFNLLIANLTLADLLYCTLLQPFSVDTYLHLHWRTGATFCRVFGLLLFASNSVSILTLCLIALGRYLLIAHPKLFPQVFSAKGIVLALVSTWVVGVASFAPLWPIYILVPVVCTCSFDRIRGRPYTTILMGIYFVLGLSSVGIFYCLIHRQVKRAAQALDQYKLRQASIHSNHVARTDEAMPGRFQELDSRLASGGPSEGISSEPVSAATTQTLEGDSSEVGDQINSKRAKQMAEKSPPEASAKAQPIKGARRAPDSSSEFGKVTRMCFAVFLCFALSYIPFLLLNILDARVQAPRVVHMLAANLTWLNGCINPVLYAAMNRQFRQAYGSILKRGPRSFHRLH

[20] = target: Retinoic acid-induced protein 3 (Homo sapiens) (UniProt Q8NFJ5); test: RLU of GPRC5A at 1.0 µM in the […] PRESTO-Tango GPCRome screen; settings: Compound concentration 1.0 uM
[21] = target: Histamine H1 receptor (Homo sapiens) (UniProt P35367); test: RLU of HRH1 at 1.0 µM in the Aequorin PRESTO-Tango GPCRome screen; settings: Compound concentration 1.0 uM
[22] = target: Histamine H3 receptor (Homo sapiens) (UniProt Q9Y5N1); test: RLU of HRH3 at 1.0 µM in the Aequorin PRESTO-Tango GPCRome screen; settings: Compound concentration 1.0 uM
Chain of Histamine H3 receptor (Homo sapiens) (Q9Y5N1 whole entry): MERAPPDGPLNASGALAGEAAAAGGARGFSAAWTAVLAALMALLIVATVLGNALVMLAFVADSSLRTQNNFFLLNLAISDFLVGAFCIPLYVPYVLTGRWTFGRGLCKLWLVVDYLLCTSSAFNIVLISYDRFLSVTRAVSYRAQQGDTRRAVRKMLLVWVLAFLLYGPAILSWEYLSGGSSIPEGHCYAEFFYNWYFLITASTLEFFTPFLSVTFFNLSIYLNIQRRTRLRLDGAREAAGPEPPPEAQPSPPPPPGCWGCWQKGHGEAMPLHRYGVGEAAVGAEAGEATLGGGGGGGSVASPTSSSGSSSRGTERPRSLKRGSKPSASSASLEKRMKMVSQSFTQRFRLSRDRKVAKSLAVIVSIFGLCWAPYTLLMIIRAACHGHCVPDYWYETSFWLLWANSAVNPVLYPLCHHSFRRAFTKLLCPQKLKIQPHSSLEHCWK

[23] = target: 5-hydroxytryptamine receptor 1A (Homo sapiens) (UniProt P08908); test: RLU of HTR1A at 1.0 µM in the Aequorin PRESTO-Tango GPCRome screen; settings: Compound concentration 1.0 uM
[24] = target: Melanocortin receptor 5 (Homo sapiens) (UniProt P33032); test: RLU of MC5R at 1.0 µM in the […] PRESTO-Tango GPCRome screen; settings: Compound concentration 1.0 uM
[25] = target: Mas-related G-protein coupled receptor member D (Homo sapiens) (UniProt Q8TDS7); test: RLU of MRGPRD at 1.0 µM in the […] PRESTO-Tango GPCRome screen; settings: Compound concentration 1.0 uM
[26] = target: Mas-related G-protein coupled receptor member X2 (Homo sapiens) (UniProt Q96LB1); test: RLU of MRGPRX2 at 1.0 µM in the […] PRESTO-Tango GPCRome screen; settings: Compound concentration 1.0 uM
[27] = target: Putative P2Y purinoceptor 10 (Homo sapiens) (UniProt O00398); test: RLU of P2RY10 at 1.0 µM in the […] PRESTO-Tango GPCRome screen; settings: Compound concentration 1.0 uM
Chain of Putative P2Y purinoceptor 10 (Homo sapiens) (O00398 whole entry): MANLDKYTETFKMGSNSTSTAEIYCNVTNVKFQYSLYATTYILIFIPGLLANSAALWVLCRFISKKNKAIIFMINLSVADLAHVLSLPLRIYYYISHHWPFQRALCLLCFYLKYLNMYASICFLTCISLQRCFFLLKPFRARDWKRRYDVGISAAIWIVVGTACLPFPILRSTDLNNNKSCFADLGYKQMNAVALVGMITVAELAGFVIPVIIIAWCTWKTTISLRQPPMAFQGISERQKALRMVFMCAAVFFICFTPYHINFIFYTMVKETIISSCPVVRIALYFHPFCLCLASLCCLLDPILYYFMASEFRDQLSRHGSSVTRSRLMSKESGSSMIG

[28] = target: P2Y purinoceptor 12 (Homo sapiens) (UniProt Q9H244); test: RLU of P2RY12 at 1.0 µM in the […] PRESTO-Tango GPCRome screen; settings: Compound concentration 1.0 uM
[29] = target: P2Y purinoceptor 13 (Homo sapiens) (UniProt Q9BPV8); test: RLU of P2RY13 at 1.0 µM in the […] PRESTO-Tango GPCRome screen; settings: Compound concentration 1.0 uM
[30] = target: P2Y purinoceptor 14 (Homo sapiens) (UniProt Q15391); test: RLU of P2RY14 at 1.0 µM in the […] PRESTO-Tango GPCRome screen; settings: Compound concentration 1.0 uM
Chain of P2Y purinoceptor 14 (Homo sapiens) (Q15391 whole entry): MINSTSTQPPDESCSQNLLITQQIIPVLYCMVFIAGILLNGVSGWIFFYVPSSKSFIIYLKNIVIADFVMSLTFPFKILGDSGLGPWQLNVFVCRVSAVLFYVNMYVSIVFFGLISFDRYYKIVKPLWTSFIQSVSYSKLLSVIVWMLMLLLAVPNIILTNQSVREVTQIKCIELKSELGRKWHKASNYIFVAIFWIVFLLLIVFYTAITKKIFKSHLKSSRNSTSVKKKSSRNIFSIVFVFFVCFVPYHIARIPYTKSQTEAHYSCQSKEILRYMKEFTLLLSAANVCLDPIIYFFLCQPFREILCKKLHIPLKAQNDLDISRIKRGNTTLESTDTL

[31] = target: Relaxin receptor 1 (Homo sapiens) (UniProt Q9HBX9); test: RLU of RXFP1 at 1.0 µM in the […] PRESTO-Tango GPCRome screen; settings: Compound concentration 1.0 uM
[32] = target: Relaxin receptor 2 (Homo sapiens) (UniProt Q8WXD0); test: RLU of RXFP2 at 1.0 µM in the […] PRESTO-Tango GPCRome screen; settings: Compound concentration 1.0 uM
[33] = target: Somatostatin receptor type 1 (Homo sapiens) (UniProt P30872); test: RLU of SSTR1 at 1.0 µM in the […] PRESTO-Tango GPCRome screen; settings: Compound concentration 1.0 uM
[34] = target: Somatostatin receptor type 2 (Homo sapiens) (UniProt P30874); test: RLU of SSTR2 at 1.0 µM in the […] PRESTO-Tango GPCRome screen; settings: Compound concentration 1.0 uM
Chain of Somatostatin receptor type 2 (Homo sapiens) (P30874 whole entry): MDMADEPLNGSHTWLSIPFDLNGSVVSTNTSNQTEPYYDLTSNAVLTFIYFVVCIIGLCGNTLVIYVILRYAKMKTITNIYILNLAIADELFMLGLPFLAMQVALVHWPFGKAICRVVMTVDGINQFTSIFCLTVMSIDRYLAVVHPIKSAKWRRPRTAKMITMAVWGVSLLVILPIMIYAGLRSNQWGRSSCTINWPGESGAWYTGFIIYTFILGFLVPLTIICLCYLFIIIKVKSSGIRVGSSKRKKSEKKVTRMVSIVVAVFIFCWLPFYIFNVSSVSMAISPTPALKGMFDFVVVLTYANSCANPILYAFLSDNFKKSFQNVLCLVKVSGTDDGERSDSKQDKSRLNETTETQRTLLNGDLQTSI

[35] = target: Succinate receptor 1 (Homo sapiens) (UniProt Q9BXA5); test: RLU of SUCNR1 at 1.0 µM in the […] PRESTO-Tango GPCRome screen; settings: Compound concentration 1.0 uM
[36] = target: Trace amine-associated receptor 2 (Homo sapiens) (UniProt Q9P1P5); test: RLU of TAAR2 at 1.0 µM in the […] PRESTO-Tango GPCRome screen; settings: Compound concentration 1.0 uM

Chain of Type-1 angiotensin II receptor (P30556 whole entry): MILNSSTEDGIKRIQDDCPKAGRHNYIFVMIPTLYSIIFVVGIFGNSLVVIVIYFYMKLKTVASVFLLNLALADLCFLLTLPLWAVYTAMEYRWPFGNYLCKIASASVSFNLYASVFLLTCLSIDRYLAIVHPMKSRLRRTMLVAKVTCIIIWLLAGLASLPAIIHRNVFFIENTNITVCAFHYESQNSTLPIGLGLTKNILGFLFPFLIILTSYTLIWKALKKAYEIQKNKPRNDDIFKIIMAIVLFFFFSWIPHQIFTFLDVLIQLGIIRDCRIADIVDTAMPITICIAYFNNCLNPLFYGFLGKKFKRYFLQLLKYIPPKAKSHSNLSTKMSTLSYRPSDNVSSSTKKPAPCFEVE

EC50 [1]: > 50 µM (not active)
RLU [2]: -688
RLU [4]: 2370
RLU [5]: 464
RLU [6]: -895
RLU [7]: -12800
RLU [8]: 7390
RLU [9]: -7340
RLU [10]: 2200
RLU [11]: -88.5
RLU [12]: -5970
RLU [13]: -1500
RLU [14]: -2920
RLU [15]: 2860
RLU [16]: 1530
RLU [17]: -483
RLU [18]: -970
RLU [19]: -3990
RLU [20]: 3570
RLU [21]: 13500
RLU [22]: -6780
RLU [23]: 1530
RLU [24]: 481
RLU [25]: -630
RLU [26]: -9420
RLU [27]: -82.4
RLU [28]: -34.4
RLU [29]: 10100
RLU [30]: -5260
RLU [31]: -1130
RLU [32]: -900
RLU [33]: -1070
RLU [34]: -163
RLU [35]: 1540
RLU [36]: 390
SMILES: CCCCC(=O)N1CC2(C1)CN(c1ccccc1-c1nnn[nH]1)C2
RLU [3]: 4830
